# Results reported in ChEMBL document CHEMBL1201862, “PubChem BioAssay data set” (2004).
#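 Protocol summary: plate cells (96-well), add compound at 5 concentrations, incubate 48 h, interpolate endpoints linearly. Here, GI50 denotes the concentration required for 50% inhibition of growth.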 Calls of active or inactive are those of the source. Rule as the data show it: active = GI50 up to about 1.1 µM and inactive = higher.
# Assays:
# Assay in all cases: DTP human tumour cell line panel, 48 h
# HOP-62 = test system: HOP-62
# HT-29 = test system: HT-29
# UO-31 = test system: UO-31
# MOLT-4 = test system: MOLT-4
# MDA-MB-435 = test system: MDA-MB-435
# UACC-62 = test system: UACC-62
# NCI/ADR-RES = test system: NCI/ADR-RES
# COLO 205 = test system: COLO 205
# ACHN = test system: ACHN
# OVCAR-8 = test system: OVCAR-8
# HCT-15 = test system: HCT-15
# CAKI-1 = test system: CAKI-1
# K562 = test system: K562
# OVCAR-3 = test system: OVCAR-3
# SF-268 = test system: SF-268
# SN12C = test system: SN12C
# NCI-H460 = test system: NCI-H460
# HL-60 = test system: HL-60
# SR = test system: SR
# OVCAR-5 = test system: OVCAR-5
# Hs-578T = test system: Hs-578T
# MCF7 = test system: MCF7
# SK-MEL-2 = test system: SK-MEL-2
# SF-295 = test system: SF-295
# 786-0 = test system: 786-0
# NCI-H522 = test system: NCI-H522
# CCRF-CEM = test system: CCRF-CEM
# UACC-257 = test system: UACC-257
# SK-MEL-28 = test system: SK-MEL-28
# MDA-N = test system: MDA-N
# OVCAR-4 = test system: OVCAR-4
# NCI-H226 = test system: NCI-H226
# SK-OV-3 = test system: SK-OV-3
# A549 = test system: A549
# IGROV-1 = test system: IGROV-1
# RPMI-8226 = test system: RPMI-8226
# SF-539 = test system: SF-539
# SW-620 = test system: SW-620
# SNB-75 = test system: SNB-75
# HOP-92 = test system: HOP-92
# BT-549 = test system: BT-549
# U-251 = test system: U-251
# SNB-19 = test system: SNB-19
# T47D = test system: T47D
# LOX IMVI = test system: LOX IMVI
# SK-MEL-5 = test system: SK-MEL-5
# A498 = test system: A498
# Malme-3M = test system: Malme-3M
# DU-145 = test system: DU-145
# MDA-MB-231 = test system: MDA-MB-231
# HCC 2998 = test system: HCC 2998
# HCT-116 = test system: HCT-116
# M14 = test system: M14
# NCI-H23 = test system: NCI-H23
# EKVX = test system: EKVX
# TK-10 = test system: TK-10
# RXF 393 = test system: RXF 393
# PC-3 = test system: PC-3
# KM12 = test system: KM12
smiles,measurement,setting,value
COc1cc(OC)cc(-c2cc(=O)c3c(OC)c(OC)c(OC)c(OC)c3o2)c1,GI50,HOP-62,32.6 µM (inactive)
same,GI50,HT-29,28.7 µM (inactive)
same,GI50,UO-31,10.8 µM (inactive)
same,GI50,MOLT-4,18.3 µM (inactive)
same,GI50,MDA-MB-435,32.8 µM (inactive)
same,GI50,UACC-62,31.9 µM (inactive)
same,GI50,NCI/ADR-RES,29.8 µM (inactive)
same,GI50,COLO 205,16.3 µM (inactive)
same,GI50,ACHN,27.2 µM (inactive)
same,GI50,OVCAR-8,33.6 µM (inactive)
same,GI50,HCT-15,33.3 µM
same,GI50,CAKI-1,> 100 µM (inactive)
same,GI50,K562,20.7 µM (inactive)
same,GI50,OVCAR-3,18.8 µM (inactive)
same,GI50,SF-268,29.6 µM (inactive)
same,GI50,SN12C,26.4 µM (inactive)
same,GI50,NCI-H460,29 µM (inactive)
same,GI50,HL-60,7.26 µM (inactive)
same,GI50,SR,> 100 µM (inactive)
same,GI50,OVCAR-5,47.3 µM (inactive)
same,GI50,Hs-578T,29.3 µM (inactive)
same,GI50,MCF7,63.7 µM (inactive)
same,GI50,SK-MEL-2,18 µM (inactive)
same,GI50,SF-295,23 µM (inactive)
same,GI50,786-0,29.9 µM (inactive)
same,GI50,NCI-H522,21.2 µM (inactive)
same,GI50,CCRF-CEM,20.5 µM (inactive)
same,GI50,UACC-257,39.2 µM (inactive)
same,GI50,SK-MEL-28,40.3 µM (inactive)
same,GI50,MDA-N,41.2 µM (inactive)
same,GI50,OVCAR-4,22.9 µM (inactive)
same,GI50,NCI-H226,32.1 µM (inactive)
same,GI50,SK-OV-3,5.93 µM (inactive)
same,GI50,A549,33.8 µM (inactive)
same,GI50,IGROV-1,32.2 µM (inactive)
same,GI50,RPMI-8226,16.9 µM (inactive)
same,GI50,SF-539,80 µM (inactive)
same,GI50,SW-620,35.7 µM (inactive)
same,GI50,SNB-75,20 µM (inactive)
same,GI50,HOP-92,16.7 µM (inactive)
same,GI50,BT-549,41.1 µM (inactive)
same,GI50,U-251,31.9 µM (inactive)
same,GI50,SNB-19,38.5 µM (inactive)
same,GI50,T47D,20.9 µM (inactive)
same,GI50,LOX IMVI,35.5 µM (inactive)
same,GI50,SK-MEL-5,19.8 µM (inactive)
same,GI50,A498,23 µM (inactive)
same,GI50,Malme-3M,31.6 µM (inactive)
same,GI50,DU-145,30.2 µM (inactive)
same,GI50,MDA-MB-231,59.7 µM (inactive)
same,GI50,HCC 2998,31.7 µM (inactive)
same,GI50,HCT-116,31.3 µM (inactive)
same,GI50,M14,37.2 µM (inactive)
same,GI50,NCI-H23,52.1 µM (inactive)
same,GI50,EKVX,29.2 µM (inactive)
same,GI50,TK-10,70.6 µM (inactive)
same,GI50,RXF 393,18.2 µM (inactive)
CC1(C)CC(=O)c2c(nc3ccc4ccccc4c3c2-c2ccc(NC(=O)CCCC(=O)Nc3ccc(-c4c5c(nc6ccc7ccccc7c46)CC(C)(C)CC5=O)cc3)cc2)C1,GI50,PC-3,> 100 µM (inactive)
same,GI50,HOP-62,> 100 µM (inactive)
same,GI50,KM12,> 100 µM (inactive)
same,GI50,HT-29,> 100 µM (inactive)
same,GI50,UO-31,> 100 µM (inactive)
same,GI50,MOLT-4,> 100 µM (inactive)
same,GI50,MDA-MB-435,> 100 µM (inactive)
same,GI50,UACC-62,> 100 µM (inactive)
same,GI50,NCI/ADR-RES,> 100 µM (inactive)
same,GI50,COLO 205,> 100 µM (inactive)
same,GI50,ACHN,> 100 µM (inactive)
same,GI50,OVCAR-8,> 100 µM (inactive)
same,GI50,HCT-15,> 100 µM
same,GI50,CAKI-1,> 100 µM (inactive)
same,GI50,K562,> 100 µM (inactive)
same,GI50,OVCAR-3,> 100 µM (inactive)
same,GI50,SF-268,> 100 µM (inactive)
same,GI50,SN12C,> 100 µM (inactive)
same,GI50,NCI-H460,> 100 µM (inactive)
same,GI50,HL-60,5.94 µM (inactive)
same,GI50,SR,> 100 µM (inactive)
same,GI50,OVCAR-5,> 100 µM (inactive)
same,GI50,Hs-578T,60.3 µM (inactive)
same,GI50,MCF7,> 100 µM (inactive)
same,GI50,SK-MEL-2,> 100 µM (inactive)
same,GI50,SF-295,> 100 µM (inactive)
same,GI50,786-0,> 100 µM (inactive)
same,GI50,CCRF-CEM,> 100 µM (inactive)
same,GI50,UACC-257,> 100 µM (inactive)
same,GI50,SK-MEL-28,> 100 µM (inactive)
same,GI50,MDA-N,> 100 µM (inactive)
same,GI50,NCI-H226,> 100 µM (inactive)
same,GI50,SK-OV-3,> 100 µM (inactive)
same,GI50,A549,> 100 µM (inactive)
same,GI50,IGROV-1,> 100 µM (inactive)
same,GI50,RPMI-8226,> 100 µM (inactive)
same,GI50,SF-539,> 100 µM (inactive)
same,GI50,SW-620,> 100 µM (inactive)
same,GI50,SNB-75,41.6 µM (inactive)
same,GI50,HOP-92,> 100 µM (inactive)
same,GI50,BT-549,> 100 µM (inactive)
same,GI50,U-251,> 100 µM (inactive)
same,GI50,SNB-19,> 100 µM (inactive)
same,GI50,T47D,> 100 µM (inactive)
same,GI50,LOX IMVI,> 100 µM (inactive)
same,GI50,SK-MEL-5,> 100 µM (inactive)
same,GI50,A498,> 100 µM (inactive)
same,GI50,DU-145,> 100 µM (inactive)
same,GI50,MDA-MB-231,> 100 µM (inactive)
same,GI50,HCT-116,> 100 µM (inactive)
same,GI50,M14,> 100 µM (inactive)
same,GI50,NCI-H23,> 100 µM (inactive)
same,GI50,EKVX,> 100 µM (inactive)
same,GI50,TK-10,> 100 µM (inactive)
Cc1nc(O)nc(N/N=C/c2ccc(Cl)cc2)c1C(=O)NC(C)(CO)CO,GI50,PC-3,> 100 µM (inactive)
same,GI50,HOP-62,> 100 µM (inactive)
same,GI50,KM12,> 100 µM (inactive)
same,GI50,HT-29,> 100 µM (inactive)
same,GI50,UO-31,> 100 µM (inactive)
same,GI50,MOLT-4,> 100 µM (inactive)
same,GI50,MDA-MB-435,> 100 µM (inactive)
same,GI50,UACC-62,> 100 µM (inactive)
same,GI50,NCI/ADR-RES,> 100 µM (inactive)
same,GI50,COLO 205,> 100 µM (inactive)
same,GI50,ACHN,> 100 µM (inactive)
same,GI50,OVCAR-8,> 100 µM (inactive)
same,GI50,HCT-15,> 100 µM
same,GI50,CAKI-1,> 100 µM (inactive)
same,GI50,K562,> 100 µM (inactive)
same,GI50,OVCAR-3,> 100 µM (inactive)
same,GI50,SF-268,> 100 µM (inactive)
same,GI50,SN12C,> 100 µM (inactive)
same,GI50,NCI-H460,> 100 µM (inactive)
same,GI50,HL-60,> 100 µM (inactive)
same,GI50,SR,> 100 µM (inactive)
same,GI50,OVCAR-5,> 100 µM (inactive)
same,GI50,Hs-578T,> 100 µM (inactive)
same,GI50,MCF7,> 100 µM (inactive)
same,GI50,SK-MEL-2,> 100 µM (inactive)
same,GI50,SF-295,> 100 µM (inactive)
same,GI50,CCRF-CEM,> 100 µM (inactive)
same,GI50,UACC-257,> 100 µM (inactive)
same,GI50,SK-MEL-28,> 100 µM (inactive)
same,GI50,MDA-N,> 100 µM (inactive)
same,GI50,OVCAR-4,> 100 µM (inactive)
same,GI50,NCI-H226,> 100 µM (inactive)
same,GI50,SK-OV-3,> 100 µM (inactive)
same,GI50,IGROV-1,> 100 µM (inactive)
same,GI50,RPMI-8226,> 100 µM (inactive)
same,GI50,SW-620,> 100 µM (inactive)
same,GI50,SNB-75,> 100 µM (inactive)
same,GI50,HOP-92,> 100 µM (inactive)
same,GI50,BT-549,> 100 µM (inactive)
same,GI50,U-251,> 100 µM (inactive)
same,GI50,SNB-19,> 100 µM (inactive)
same,GI50,T47D,60.7 µM (inactive)
same,GI50,LOX IMVI,> 100 µM (inactive)
same,GI50,SK-MEL-5,> 100 µM (inactive)
same,GI50,A498,> 100 µM (inactive)
same,GI50,Malme-3M,> 100 µM (inactive)
same,GI50,DU-145,> 100 µM (inactive)
same,GI50,HCC 2998,> 100 µM (inactive)
same,GI50,HCT-116,> 100 µM (inactive)
same,GI50,M14,> 100 µM (inactive)
same,GI50,NCI-H23,> 100 µM (inactive)
same,GI50,EKVX,> 100 µM (inactive)
same,GI50,TK-10,> 100 µM (inactive)
same,GI50,RXF 393,> 100 µM (inactive)
